The subject of experiment [1] is prostate cancer cell lines. The experiment is described as follows: cell cycle analysis. Format: cell-based, human. As to the method:
Cells were seeded in 6-well plates and treated with various drugs for 72 hours. Single cells were fixed with 70% ethanol, stained with propidium iodine, and cell cycle was analyzed by flow cytometry.

In experiment [2] the test system is castration-resistant VCaP tumors. The experiment is described as follows: castration-resistant VCaP xenograft mouse model. Format: in vivo. Conditions: 30 or 60 mg/kg. On the procedure:
Four- to six-week old male CB17 severe combined immunodeficiency (SCID) mice were procured from the University of Michigan breeding colony. Subcutaneous tumors were established at both sides of the dorsal flank of mice. Tumors were measured at least biweekly using digital calipers following the formula (π/6) (L×W2), where L=length and W=width of the tumor. At the end of the studies, mice were sacrificed and tumors extracted and weighed. The University of Michigan University Committee on the Use and Care of Animals (UCUCA) approved all in vivo studies. For the VCaP castration-resistant tumor model, 3×10^6 VCaP cells were injected subcutaneously into the dorsal flank on both sides of the mice in serum-free medium with 50% Matrigel (BD Biosciences). Once tumors reached a palpable stage (˜200 mm^3), tumor-bearing mice were castrated. Once tumors grew back to the pre-castration size, mice were randomized and treated with either 30 mg/kg, 60 mg/kg ESK981, or vehicle (ORA-PLUS) by oral gavage 5 days per week. For the DU145 xenograft tumor model, 1×10^6 DU145 cells were injected subcutaneously into the dorsal flank on both sides of the mice in serum-free medium with 50% Matrigel. When tumors reached ˜100 mm^3, tumor-bearing mice were randomized and treated with 30 mg/kg ESK981 or vehicle (ORA-PLUS) by oral gavage 5 days per week.

For the next experiment, the system named is LAMP1 in DU145 cells. Briefly: LAMP1 immunofluorescence. Format: cell-based, human. To be noted: 300 nM, 24 hours. On the procedure: For LAMP1 immunofluorescence, cells were seeded on coverslips overnight and treated with ESK981 at 300 nM for 24 hours. Coverslips were fixed with 10% paraformaldehyde and permeabilized with 10% saponin. Coverslips were then blocked with 10% goat serum and stained with LAMP1 antibody (Cat No. 9091, Cell Signaling Technology) and fluorescently-labelled secondary antibody. Confocal images were taken using a Nikon A1 confocal microscope.

Experiment [3] relates to VCaP cells. Briefly: human cytokine array of conditioned medium. Format: cell-based. Conditions: VCaP conditioned media, 300 nM, 24 hours. As to the method: Cells were seeded in 6-well plates, and conditioned medium was collected after 24 hours of drug incubation. Cytokine expression was determined by proteome profiler mouse XL cytokine array (Cat No. ARY028, R&D System) or proteome profiler human XL cytokine array kit (Cat No. ARY022, R&D System) according to the manufacturer's instructions.

The subject of the next experiment is CXCL10 in VCaP cells. The experiment is described as follows: human CXCL10 ELISA of conditioned medium. Format: cell-based. To be noted: VCaP-conditioned medium, 300 nM, 24 hours. On the procedure:
Conditioned medium was collected after 24 hours of drug incubation. ELISA was performed using a human CXCL10 ELISA kit (Cat No. KAC2361, ThermoFisher), or a mouse CXCL10 ELISA kit (Cat No. ab214563, Abcam) according to the manufacturer's instructions.

The subject of experiment [4] is VCaP cells. Briefly: untargeted lipidomic analysis. It counts as cell-based, human. To be noted: 300 nM, 6 and 24 hours. On the procedure:
Details of sample preparation and identification for untargeted lipidomic profiling have been previously reported^68. The lipids were extracted using a modified Bligh-Dyer method^69. The extraction was carried out using a 2:2:2 volume ratio of water:methanol:dichloromethane at room temperature after spiking internal standard lipids (17:0LPC, 17:0PC, 17:0PE, 17:0PG, 17:0 ceramide, 17:0SM, 17:0PS, 17:0PA, 17:0TG, 17:0MG, d5-DG, d31-TG, and 17.0-20.4 PI). The organic layer was collected and dried completely under nitrogen. The organic dried extract containing lipids was further analyzed by LC-MS-based lipidomics. The dried lipid extracts were injected onto a 1.8-μm particle 50×2.1 mm id Waters Acquity HSS T3 column (Waters, Milford, MA), which was heated to 55° C. […] As controls (QC) to monitor the profiling process, a pool of plasma and test plasma (a small aliquot from all test samples) were extracted and analyzed in tandem with the experimental samples. These controls were incorporated multiple times into the randomization scheme such that sample preparation and analytical variability could be constantly monitored. […] Identified lipids were quantified by normalizing against their respective internal standard. […] The QC samples were mainly used to remove technical outliers and lipid species that were detected below the lipid class-based lower limit of quantification.

Consider `CC(C)Cn1c2ccc(Nc3ncccn3)cc2c2c3c(c4c(c21)CCc1nn(C)cc1-4)C(=O)NC3` [ESK981, 13-isobutyl-4-methyl-10-(pyrimidin-2-ylamino)-1,2,4,7,8,13-hexahydro-6H-indazolo[5,4-a]pyrrolo[3,4-c]carbazol-6-one], for which, in experiment [1] (72 hours, increasing concentrations), the cell cycle arrest result is given as “dose-dependent G2/M phase arrest”. Further, in experiment [1] (VCaP cells, ESK981 100 nM vs cabozantinib 5 μM, crizotinib 3 μM, enzalutamide 10 μM), the “G2/M arrest compared with other inhibitors” value is “greater G2/M arrest potential at a lower concentration”. Besides, the “cell proliferation by Ki67 IHC” value in experiment [2] (five days of treatment) is “dose-dependent reductions”. Further, the tumor weights result in experiment [2] (oral gavage) is listed as “dose-dependent reductions”. The “tumor growth of VCaP xenografts” value in experiment [2] (oral gavage, castrated SCID mice, vs vehicle) is listed as “significant dose-dependent growth inhibiton”. In addition, the “LAMP1 staining of ESK981-induced vacuoles” value in the experiment with LAMP1 in DU145 cells was “positive for the lysosomal marker LAMP1”. In the experiment on VCaP cells [3], the “cytokines induced (array of 105 cytokines)” value is on record as “significantly induced only CXCL10 and, to a lesser extent, CCL2”. Besides, the “rank in inducing CXCL10 levels among compound libraries” value in the experiment on CXCL10 in VCaP cells was “ranked first in inducing CXCL10 levels in the tyrosine kinase inhibitor library and second in the autophagy-linked compound library”. For the same compound, the major lipid changed result in the experiment on VCaP cells [4] is on record as “phosphatidylethanolamine (PE) was the major lipid increased”.

Source of the values: patent US20230364084A1, “METHODS FOR PREVENTING OR TREATING CONDITIONS RELATED TO PIKFYVE ACTIVITY” (The Regents of the University of Michigan, priority 2020, published 2023).
